Data published in US20100105655A1, “NOVEL COMPOUNDS 515” (ASTRAZENECA AB, priority 2008, published 2010).

target: T1, IGFR kinase (Homo sapiens, UniProt P08069); test: Enzyme assay (c), IGFR kinase, Caliper LabChip; type: biochemical; conditions: 30 nM IGFR kinase, 6 uM ATP, 3 uM peptide mix; read-out: IGFR IC50
T1 construct: purchased Millipore
T1 sequence (P08069 31-1367): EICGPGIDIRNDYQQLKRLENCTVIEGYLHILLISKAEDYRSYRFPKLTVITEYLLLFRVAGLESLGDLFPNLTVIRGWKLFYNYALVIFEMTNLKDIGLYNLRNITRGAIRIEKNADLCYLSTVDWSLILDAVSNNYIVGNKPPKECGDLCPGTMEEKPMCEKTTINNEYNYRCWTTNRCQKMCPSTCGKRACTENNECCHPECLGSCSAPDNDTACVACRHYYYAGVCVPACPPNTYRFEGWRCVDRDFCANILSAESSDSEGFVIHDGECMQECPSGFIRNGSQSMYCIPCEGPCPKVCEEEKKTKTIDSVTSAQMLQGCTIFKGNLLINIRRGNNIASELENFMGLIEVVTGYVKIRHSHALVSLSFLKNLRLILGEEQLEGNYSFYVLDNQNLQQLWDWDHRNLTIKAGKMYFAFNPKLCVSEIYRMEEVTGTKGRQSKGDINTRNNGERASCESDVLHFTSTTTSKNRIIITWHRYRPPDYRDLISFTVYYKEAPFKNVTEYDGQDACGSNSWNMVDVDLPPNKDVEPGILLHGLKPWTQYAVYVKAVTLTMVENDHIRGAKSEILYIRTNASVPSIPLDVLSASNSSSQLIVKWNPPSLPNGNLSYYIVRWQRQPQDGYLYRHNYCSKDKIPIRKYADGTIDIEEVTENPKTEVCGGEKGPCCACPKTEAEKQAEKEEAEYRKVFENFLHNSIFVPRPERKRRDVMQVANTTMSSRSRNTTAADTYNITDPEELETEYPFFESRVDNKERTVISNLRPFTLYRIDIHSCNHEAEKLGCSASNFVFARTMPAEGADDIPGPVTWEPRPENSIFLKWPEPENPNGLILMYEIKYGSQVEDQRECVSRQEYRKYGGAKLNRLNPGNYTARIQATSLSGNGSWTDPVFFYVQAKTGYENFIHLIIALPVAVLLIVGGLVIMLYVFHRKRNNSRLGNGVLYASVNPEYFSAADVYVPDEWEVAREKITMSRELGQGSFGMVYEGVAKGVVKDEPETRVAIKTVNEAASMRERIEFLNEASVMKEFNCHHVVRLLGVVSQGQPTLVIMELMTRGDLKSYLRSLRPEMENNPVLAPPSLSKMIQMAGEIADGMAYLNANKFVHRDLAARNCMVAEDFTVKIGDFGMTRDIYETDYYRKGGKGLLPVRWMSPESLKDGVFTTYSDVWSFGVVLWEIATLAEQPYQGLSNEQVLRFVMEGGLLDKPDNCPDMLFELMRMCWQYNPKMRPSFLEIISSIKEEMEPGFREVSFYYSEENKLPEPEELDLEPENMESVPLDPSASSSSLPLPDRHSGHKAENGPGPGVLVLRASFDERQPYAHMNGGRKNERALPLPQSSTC

`COc1cc(CN2CCC(O)CC2)ccc1Nc1ncc(Cl)c(-c2cnc3ccccn23)n1` [Example 21.5, 1-[[4-[(5-chloro-4-imidazo[1,2-a]pyridin-3-yl-pyrimidin-2-yl)amino]-3-methoxy-phenyl]methyl]piperidin-4-ol] and `COc1cc(CN2CCCOCC2)ccc1Nc1ncc(Cl)c(-c2cnc3ccccn23)n1` [Example 21.14, 5-chloro-4-imidazo[1,2-a]pyridin-3-yl-N-[2-methoxy-4-(1,4-oxazepan-4-ylmethyl)phenyl]pyrimidin-2-amine] are the same in IC50: 28 nM for the first, 28 nM for the second.

Compared with `COc1cc(C2CCN(C(=O)[C@H](C)O)CC2)ccc1Nc1ncc(Cl)c(-c2cnc3ccccn23)n1` [Example 28.4, (2S)-1-[4-[4-[(5-chloro-4-imidazo[1,2-a]pyridin-3-yl-pyrimidin-2-yl)amino]-3-methoxy-phenyl]-1-piperidyl]-2-hydroxy-propan-1-one], `COc1cc(C2CCN(C(=O)[C@@H](C)OC)CC2)ccc1Nc1ncc(Cl)c(-c2cnc3ccccn23)n1` [Example 28.1, (2R)-1-[4-[4-[(5-chloro-4-imidazo[1,2-a]pyridin-3-yl-pyrimidin-2-yl)amino]-3-methoxy-phenyl]-1-piperidyl]-2-methoxy-propan-1-one] is 2.8-fold lower in IC50: 14 nM for the first, 5 nM for the second. The second is the more potent here.

Going from `COc1cc(N2CCN(C(=O)[C@@H](C)O)CC2)ccc1Nc1ncc(Cl)c(-c2cnc3c(F)cccn23)n1` [Example 178, (2R)-1-[4-[4-[[5-chloro-4-(8-fluoroimidazo[1,2-a]pyridin-3-yl)pyrimidin-2-yl]amino]-3-methoxy-phenyl]piperazin-1-yl]-2-hydroxy-propan-1-one] to `COc1cc(N2CCN(C(=O)[C@@H](N)CO)CC2)ccc1Nc1ncc(Cl)c(-c2cnc3ccccn23)n1` [Example 24.7, (2S)-2-amino-1-[4-[4-[(5-chloro-4-imidazo[1,2-a]pyridin-3-yl-pyrimidin-2-yl)amino]-3-methoxy-phenyl]piperazin-1-yl]-3-hydroxy-propan-1-one], the IC50 falls from 15 nM to 5 nM (3-fold). The second is the more potent here.

Compared with `COc1cc(N2CCN(C(C)=O)CC2)ccc1Nc1ncc(F)c(-c2cnn3ccccc23)n1` [Example 170, 1-[4-[4-[(5-fluoro-4-pyrazolo[1,5-a]pyridin-3-yl-pyrimidin-2-yl)amino]-3-methoxy-phenyl]piperazin-1-yl]ethanone], `COc1cc(N2CCNCC2)ccc1Nc1ncc(F)c(-c2cnn3ccccc23)n1` [Example 171, 5-fluoro-N-(2-methoxy-4-piperazin-1-yl-phenyl)-4-pyrazolo[1,5-a]pyridin-3-yl-pyrimidin-2-amine] is 3.9-fold lower in IC50: 67 nM for the first, 17 nM for the second.

Going from `COc1cc(C2CCN(C(=O)[C@@H](C)O)CC2)ccc1Nc1ncc(C)c(-c2cnc3c(F)cccn23)n1` [Example 200, (2R)-1-[4-[4-[[4-(8-fluoroimidazo[1,2-a]pyridin-3-yl)-5-methyl-pyrimidin-2-yl]amino]-3-methoxy-phenyl]-1-piperidyl]-2-hydroxy-propan-1-one] to `COc1cc(OC2CCN(C(=O)C(C)O)CC2)ccc1Nc1ncc(Cl)c(-c2cnc3ccccn23)n1` (stereo not shown) [Example 9, 1-[4-[4-[(5-chloro-4-imidazo[1,2-a]pyridin-3-yl-pyrimidin-2-yl)amino]-3-methoxy-phenoxy]-1-piperidyl]-2-hydroxy-propan-1-one], the IC50 falls from 32 nM to 21 nM (1.5-fold).

Going from `COc1cc(CN2CCN(CCO)CC2)ccc1Nc1ncc(Cl)c(-c2cnc3ccccn23)n1` [Example 21.8, 2-[4-[[4-[(5-chloro-4-imidazo[1,2-a]pyridin-3-yl-pyrimidin-2-yl)amino]-3-methoxy-phenyl]methyl]piperazin-1-yl]ethanol] to `COCCN1CCN(CCOc2ccc(Nc3ncc(Cl)c(-c4cnc5ccccn45)n3)c(OC)c2)CC1` [Example 3.12, 5-chloro-4-imidazo[1,2-a]pyridin-3-yl-N-[2-methoxy-4-[2-[4-(2-methoxyethyl)piperazin-1-yl]ethoxy]phenyl]pyrimidin-2-amine], the IC50 rises from 20 nM to 44 nM (2.2-fold). The first is the more potent here.

Going from `COc1cc(OC[C@H]2CCCN2C(C)=O)ccc1Nc1ncc(OC)c(-c2cnc3ccccn23)n1` [Example 114, 1-[(2R)-2-[[4-[(4-imidazo[1,2-a]pyridin-3-yl-5-methoxy-pyrimidin-2-yl)amino]-3-methoxy-phenoxy]methyl]pyrrolidin-1-yl]ethanone] to `COc1cc(N2CCN(C(C)=O)C(CO)C2)ccc1Nc1ncc(Cl)c(-c2cnc3ccccn23)n1` (stereo not shown) [Example 3.38, 1-[4-[4-[(5-chloro-4-imidazo[1,2-a]pyridin-3-yl-pyrimidin-2-yl)amino]-3-methoxy-phenyl]-2-(hydroxymethyl)piperazin-1-yl]ethanone], the IC50 rises from 13 nM to 21 nM (1.6-fold). The first is the more potent here.

`COc1cc(N2CCN(CC(=O)N3CCOCC3)CC2)ccc1Nc1ncc(Cl)c(-c2cnc3ccccn23)n1` [Example 3.3, 2-[4-[4-[(5-chloro-4-imidazo[1,2-a]pyridin-3-yl-pyrimidin-2-yl)amino]-3-methoxy-phenyl]piperazin-1-yl]-1-morpholino-ethanone] and `COc1cc(N2CCN(C[C@@H](O)CO)CC2)ccc1Nc1ncc(Cl)c(-c2cnc3ccccn23)n1` [Example 53, (2R)-3-[4-[4-[(5-chloro-4-imidazo[1,2-a]pyridin-3-yl-pyrimidin-2-yl)amino]-3-methoxy-phenyl]piperazin-1-yl]propane-1,2-diol] are within 1.5-fold of each other in IC50: 11 nM for the first, 8 nM for the second.

Compared with `COc1cc(C2CCCN(C(C)=O)C2)ccc1Nc1ncc(Cl)c(-c2cnc3ccccn23)n1` (stereo not shown) [Example 3.29, 1-[3-[4-[(5-chloro-4-imidazo[1,2-a]pyridin-3-yl-pyrimidin-2-yl)amino]-3-methoxy-phenyl]-1-piperidyl]ethanone], `COc1cc(OC2CN(C[C@@H](C)O)C2)ccc1Nc1ncc(Cl)c(-c2cnc3ccccn23)n1` [Example 62, (2R)-1-[3-[4-[(5-chloro-4-imidazo[1,2-a]pyridin-3-yl-pyrimidin-2-yl)amino]-3-methoxy-phenoxy]azetidin-1-yl]propan-2-ol] is 3.2-fold higher in IC50: 6 nM for the first, 19 nM for the second. The first is the more potent here.

First: COc1cc(N2CCN(C(=O)[C@@H](N)CC(N)=O)CC2)ccc1Nc1ncc(Cl)c(-c2cnc3ccccn23)n1 [Example 24.8, (3S)-3-amino-4-[4-[4-[(5-chloro-4-imidazo[1,2-a]pyridin-3-yl-pyrimidin-2-yl)amino]-3-methoxy-phenyl]piperazin-1-yl]-4-oxo-butanamide]
Second: COc1cc(N2CCS(=O)(=O)CC2)ccc1Nc1ncc(Cl)c(-c2cnc3ccccn23)n1 [Example 3.15, 5-chloro-N-[4-(1,1-dioxo-1,4-thiazinan-4-yl)-2-methoxy-phenyl]-4-imidazo[1,2-a]pyridin-3-yl-pyrimidin-2-amine]
The IC50 of the first is 8.6-fold lower: 7 nM for the first, 60 nM for the second.

Compared with `CNCC(=O)N1CCN(c2ccc(Nc3ncc(Cl)c(-c4cnc5c(F)cc(F)cn45)n3)c(OC)c2)CC1` [Example 248, 1-[4-[4-[[5-chloro-4-(6,8-difluoroimidazo[1,2-a]pyridin-3-yl)pyrimidin-2-yl]amino]-3-methoxy-phenyl]piperazin-1-yl]-2-(methylamino)ethanone], `COc1cc(N2CCN(C(C)=O)CC2)ccc1Nc1ncc(Cl)c(-c2cnc3cc(CN(C)C(C)=O)ccn23)n1` [Example 188, N-[[3-[2-[4-(4-acetylpiperazin-1-yl)-2-methoxy-anilino]-5-chloro-pyrimidin-4-yl]imidazo[1,2-a]pyridin-7-yl]methyl]-N-methyl-acetamide] is 20-fold higher in IC50: 6 nM for the first, 120 nM for the second.

Going from `COc1cc(N2CC3CN(C(C)=O)CC(C2)O3)ccc1Nc1ncc(Cl)c(-c2cnc3c(F)cccn23)n1` [Example 215, 1-[3-[4-[[5-chloro-4-(8-fluoroimidazo[1,2-a]pyridin-3-yl)pyrimidin-2-yl]amino]-3-methoxy-phenyl]-9-oxa-3,7-diazabicyclo[3.3.1]nonan-7-yl]ethanone] to `COc1cc(N2CC3CN(CCS(C)(=O)=O)CC(C2)O3)ccc1Nc1ncc(Cl)c(-c2cnc3c(F)cccn23)n1` [Example 207, 5-chloro-4-(8-fluoroimidazo[1,2-a]pyridin-3-yl)-N-[2-methoxy-4-[3-(2-methylsulfonylethyl)-9-oxa-3,7-diazabicyclo[3.3.1]nonan-7-yl]phenyl]pyrimidin-2-amine], the IC50 rises from 9 nM to 19 nM (2.1-fold). The first is the more potent here.

Going from `CC(=O)N1CCN(c2cccc(Nc3ncc(Cl)c(-c4cnc5ccccn45)n3)c2C)CC1` [Example 3.37, 1-[4-[3-[(5-chloro-4-imidazo[1,2-a]pyridin-3-yl-pyrimidin-2-yl)amino]-2-methyl-phenyl]piperazin-1-yl]ethanone] to `COc1cc(N2CCN(C[C@@H](O)CO)CC2)ccc1Nc1ncc(C)c(-c2cnc3ccccn23)n1` [Example 267, (2R)-3-[4-[4-[(4-imidazo[1,2-a]pyridin-3-yl-5-methyl-pyrimidin-2-yl)amino]-3-methoxy-phenyl]piperazin-1-yl]propane-1,2-diol], the IC50 rises from 12 nM to 27 nM (2.2-fold). The first is the more potent here.

`COc1cc(N2CCC(O)CC2)ccc1Nc1ncc(F)c(-c2cnc3ccccn23)n1` [Example 111, 1-[4-[(5-fluoro-4-imidazo[1,2-a]pyridin-3-yl-pyrimidin-2-yl)amino]-3-methoxy-phenyl]piperidin-4-ol] and `COc1cc(N2CCN(CC(C)(C)O)CC2)ccc1Nc1ncc(F)c(-c2cnc3ccccn23)n1` [Example 91, 1-[4-[4-[(5-fluoro-4-imidazo[1,2-a]pyridin-3-yl-pyrimidin-2-yl)amino]-3-methoxy-phenyl]piperazin-1-yl]-2-methyl-propan-2-ol] are within 1.5-fold of each other in IC50: 49 nM for the first, 35 nM for the second.

Compared with `COc1cc(OC2CN(CC(C)(C)O)C2)ccc1Nc1ncc(Cl)c(-c2cnc3ccccn23)n1` [Example 63, 1-[3-[4-[(5-chloro-4-imidazo[1,2-a]pyridin-3-yl-pyrimidin-2-yl)amino]-3-methoxy-phenoxy]azetidin-1-yl]-2-methyl-propan-2-ol], `COc1cc(OCC(=O)N(C)C)ccc1Nc1ncc(Cl)c(-c2cnc3c(F)cccn23)n1` [Example 217, 2-[4-[[5-chloro-4-(8-fluoroimidazo[1,2-a]pyridin-3-yl)pyrimidin-2-yl]amino]-3-methoxy-phenoxy]-N,N-dimethyl-acetamide] is 1.6-fold lower in IC50: 16 nM for the first, 10 nM for the second.

`COc1cc(N2CC3CN(C(CO)CO)CC(C2)O3)ccc1Nc1ncc(Cl)c(-c2cnn3ccccc23)n1` [Example 242, 2-[7-[4-[(5-chloro-4-pyrazolo[1,5-a]pyridin-3-yl-pyrimidin-2-yl)amino]-3-methoxy-phenyl]-9-oxa-3,7-diazabicyclo[3.3.1]nonan-3-yl]propane-1,3-diol] was tested, and the IC50 was 740 nM.
